Results on one substance are retold here after paper PMC3723855, “R31C GNRH1 Mutation and Congenital Hypogonadotropic Hypogonadism” (PLoS ONE, 2013).

The test has as its system LbetaT2 cells. Briefly: Intracellular calcium mobilization (Fura2) in LbetaT2 cells. To be noted: pre-treatment with 100 nM cetrorelix; data not shown. The class given is cell-based, murine. The procedure: Figure 5 Effect of treatments on intracellular calcium mobilization. Cells were loaded with Fura 2-AM. At the time of the experiment 100 µM EGTA was added 30 sec before addition of 300 µM of CaCl2 (Ca^2+) to the medium as indicated, and cells were then stimulated with 10 nM of wild type (WT), mutant (R31C) or equimolar combination (10 nM WT +10 nM R31C) or vehicle for 3 min. In the upper panel, representative curves of single cell recording. Each experiment mean was analysed using One-way ANOVA followed by Tukey's Multiple comparison test. In the lower panels, histograms show the means ± SEM (n = 4) of the response to ligands as calcium peak and as area under the curve (AUC). […] Representative of at least three independent experiments, *p<0.05.
LbetaT2 cells were kept in serum free medium overnight and then loaded with 2 µM Fura2-AM for 45 min at 37°C. The experiment was conducted in HEPES buffer (in mM; 116 NaCl, 5.6 KCl, 1.2 MgCl2, 5 NaHCO3, 1 NaH2PO4, 20 HEPES ph 7.4) in presence of extracellular Ca^2+ (EGTA 100 µM + CaCl2 300 µM). Single images of fluorescent emission at 510 nm under excitation at 340 and 380 nm were taken every 5 Sec. Changes in [Ca^2+]i in response to GnRHs were monitored using the Fura2 340/380 fluorescence ratio. Basal ratio was arbitrarily considered as 1. Ca^2+ responses over basal level were given either as maximal rise of [Ca^2+]i or as area under the curve (for 2 min after agonist addition).

Consider cetrorelix [reference compound], for which the “calcium responses to WT and R31C after antagonist pre-treatment” value was “abolished responses to both ligands”.
